In patent US11834453B2, “Substituted pyrimido[5,4-d]pyrimidines as HER2 inhibitors” (Array BioPharma Inc., priority 2020, dated 2023):
Where a name gives a salt, the structure may show the parent alone. Read-outs that look alike come from different tables or passages of the source.

Columns and labels:
EGFR wild type (EGFR WT) = EGFR wild type (EGFR WT) (Homo sapiens (Human), UniProt P00533); experiment: Cellular phosphorylation assay, EGF-stimulated EGFR phosphorylation in engineered NIH 3T3 cells, Phospho-EGFR DuoSet IC ELISA, Assay 5; format: cell-based
Chain of EGFR wild type (EGFR WT) (P00533 25-1210): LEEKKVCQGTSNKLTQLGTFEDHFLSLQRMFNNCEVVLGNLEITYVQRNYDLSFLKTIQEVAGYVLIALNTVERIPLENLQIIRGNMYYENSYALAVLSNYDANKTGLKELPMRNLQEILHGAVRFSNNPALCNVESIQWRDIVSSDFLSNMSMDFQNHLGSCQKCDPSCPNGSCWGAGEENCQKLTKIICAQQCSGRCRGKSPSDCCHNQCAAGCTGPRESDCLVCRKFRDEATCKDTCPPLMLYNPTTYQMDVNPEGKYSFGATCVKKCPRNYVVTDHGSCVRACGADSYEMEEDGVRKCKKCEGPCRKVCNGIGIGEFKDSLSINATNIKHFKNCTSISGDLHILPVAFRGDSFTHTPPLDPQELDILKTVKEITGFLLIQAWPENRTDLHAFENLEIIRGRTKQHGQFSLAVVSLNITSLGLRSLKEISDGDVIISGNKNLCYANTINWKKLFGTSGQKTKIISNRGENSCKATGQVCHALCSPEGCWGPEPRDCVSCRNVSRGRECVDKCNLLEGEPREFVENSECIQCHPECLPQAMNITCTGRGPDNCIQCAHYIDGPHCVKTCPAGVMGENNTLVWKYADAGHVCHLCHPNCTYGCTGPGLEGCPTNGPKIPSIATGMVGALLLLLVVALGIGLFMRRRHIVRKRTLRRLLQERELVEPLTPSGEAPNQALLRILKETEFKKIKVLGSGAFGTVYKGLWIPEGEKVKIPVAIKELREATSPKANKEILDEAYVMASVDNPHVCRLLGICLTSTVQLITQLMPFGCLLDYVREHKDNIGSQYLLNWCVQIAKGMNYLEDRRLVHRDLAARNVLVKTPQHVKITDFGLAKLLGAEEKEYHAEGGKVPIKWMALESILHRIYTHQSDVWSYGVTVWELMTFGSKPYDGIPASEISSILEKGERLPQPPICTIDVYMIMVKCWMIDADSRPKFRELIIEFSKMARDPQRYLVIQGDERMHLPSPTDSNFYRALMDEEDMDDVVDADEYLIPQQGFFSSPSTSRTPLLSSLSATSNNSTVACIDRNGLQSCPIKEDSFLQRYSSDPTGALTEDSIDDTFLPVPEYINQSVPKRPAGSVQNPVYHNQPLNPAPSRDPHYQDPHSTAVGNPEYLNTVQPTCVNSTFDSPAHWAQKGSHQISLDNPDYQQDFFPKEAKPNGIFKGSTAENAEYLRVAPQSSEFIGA
How it was run: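 Phospho-EGFR ELISA on lysates of engineered NIH 3T3 EGFR WT cells, IC50 derived from concentration curves. Cells plated at 20,000/well overnight, given compound dilutions 1 h at 37 °C, then rEGF 100 ng/ml for a further 10 min before lysis.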

ErbB2 WT = ErbB2 WT (Homo sapiens (Human), UniProt P04626); experiment: ErbB enzyme assay (CisBio HTRF KinEASE-TK), Assay 2; format: biochemical
Chain of ErbB2 WT (P04626 23-1255): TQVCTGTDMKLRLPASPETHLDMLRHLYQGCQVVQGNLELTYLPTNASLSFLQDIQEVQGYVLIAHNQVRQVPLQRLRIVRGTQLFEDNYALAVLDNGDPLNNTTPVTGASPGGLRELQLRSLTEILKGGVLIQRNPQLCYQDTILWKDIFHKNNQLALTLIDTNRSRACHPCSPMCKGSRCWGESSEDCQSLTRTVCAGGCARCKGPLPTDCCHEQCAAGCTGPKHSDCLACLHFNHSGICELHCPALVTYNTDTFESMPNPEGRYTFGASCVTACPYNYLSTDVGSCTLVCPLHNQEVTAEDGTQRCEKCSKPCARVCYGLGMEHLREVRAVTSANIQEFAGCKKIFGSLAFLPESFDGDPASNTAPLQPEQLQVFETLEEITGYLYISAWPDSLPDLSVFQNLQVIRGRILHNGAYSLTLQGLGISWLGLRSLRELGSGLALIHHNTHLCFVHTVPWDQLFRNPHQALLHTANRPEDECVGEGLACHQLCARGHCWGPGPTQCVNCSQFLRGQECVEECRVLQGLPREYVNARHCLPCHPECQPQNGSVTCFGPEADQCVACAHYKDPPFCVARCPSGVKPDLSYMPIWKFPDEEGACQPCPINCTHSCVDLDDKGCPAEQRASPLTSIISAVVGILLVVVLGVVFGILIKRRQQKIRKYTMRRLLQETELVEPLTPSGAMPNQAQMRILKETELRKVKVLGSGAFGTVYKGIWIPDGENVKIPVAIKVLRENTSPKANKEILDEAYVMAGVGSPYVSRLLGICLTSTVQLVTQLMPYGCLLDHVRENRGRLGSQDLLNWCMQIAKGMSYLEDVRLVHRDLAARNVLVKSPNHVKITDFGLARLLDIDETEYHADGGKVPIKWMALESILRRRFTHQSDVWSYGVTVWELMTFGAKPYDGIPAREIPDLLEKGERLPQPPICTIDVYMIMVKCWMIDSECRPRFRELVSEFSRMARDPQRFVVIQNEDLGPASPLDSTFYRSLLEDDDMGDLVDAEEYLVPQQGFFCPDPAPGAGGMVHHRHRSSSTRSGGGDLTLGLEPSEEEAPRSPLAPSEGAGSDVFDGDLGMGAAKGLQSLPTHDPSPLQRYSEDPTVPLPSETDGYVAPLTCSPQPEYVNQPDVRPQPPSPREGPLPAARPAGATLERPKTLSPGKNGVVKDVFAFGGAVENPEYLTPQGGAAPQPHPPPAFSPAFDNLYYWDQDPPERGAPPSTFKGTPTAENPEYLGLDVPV
How it was run: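 Readout is HTRF KinEASE-TK, using Sa-XL665 and cryptate antibody for 1 h at 22 °C, as percent of control between DMSO-only (100) and pre-quenched (0) reactions. The kinase reaction runs 30 min at 22 °C with 1 mM ATP and 250 nM biotinylated TK substrate, in HEPES pH 7.4 with MgCl2 and 2% DMSO.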

[1] = target: ErbB2 with Exon 20 YVMA insertion (HER2-YVMA) (Homo sapiens (Human), UniProt P04626, INS775YVMA); experiment: Cellular phosphorylation assay, constitutive ErbB2 phosphorylation (Y1196) in engineered NIH 3T3 cells, Assay 4; format: cell-based
Chain of ErbB2 with Exon 20 YVMA insertion (HER2-YVMA) (P04626 other isoform, or with tags, fused parts or gaps ins YVMA behind 775): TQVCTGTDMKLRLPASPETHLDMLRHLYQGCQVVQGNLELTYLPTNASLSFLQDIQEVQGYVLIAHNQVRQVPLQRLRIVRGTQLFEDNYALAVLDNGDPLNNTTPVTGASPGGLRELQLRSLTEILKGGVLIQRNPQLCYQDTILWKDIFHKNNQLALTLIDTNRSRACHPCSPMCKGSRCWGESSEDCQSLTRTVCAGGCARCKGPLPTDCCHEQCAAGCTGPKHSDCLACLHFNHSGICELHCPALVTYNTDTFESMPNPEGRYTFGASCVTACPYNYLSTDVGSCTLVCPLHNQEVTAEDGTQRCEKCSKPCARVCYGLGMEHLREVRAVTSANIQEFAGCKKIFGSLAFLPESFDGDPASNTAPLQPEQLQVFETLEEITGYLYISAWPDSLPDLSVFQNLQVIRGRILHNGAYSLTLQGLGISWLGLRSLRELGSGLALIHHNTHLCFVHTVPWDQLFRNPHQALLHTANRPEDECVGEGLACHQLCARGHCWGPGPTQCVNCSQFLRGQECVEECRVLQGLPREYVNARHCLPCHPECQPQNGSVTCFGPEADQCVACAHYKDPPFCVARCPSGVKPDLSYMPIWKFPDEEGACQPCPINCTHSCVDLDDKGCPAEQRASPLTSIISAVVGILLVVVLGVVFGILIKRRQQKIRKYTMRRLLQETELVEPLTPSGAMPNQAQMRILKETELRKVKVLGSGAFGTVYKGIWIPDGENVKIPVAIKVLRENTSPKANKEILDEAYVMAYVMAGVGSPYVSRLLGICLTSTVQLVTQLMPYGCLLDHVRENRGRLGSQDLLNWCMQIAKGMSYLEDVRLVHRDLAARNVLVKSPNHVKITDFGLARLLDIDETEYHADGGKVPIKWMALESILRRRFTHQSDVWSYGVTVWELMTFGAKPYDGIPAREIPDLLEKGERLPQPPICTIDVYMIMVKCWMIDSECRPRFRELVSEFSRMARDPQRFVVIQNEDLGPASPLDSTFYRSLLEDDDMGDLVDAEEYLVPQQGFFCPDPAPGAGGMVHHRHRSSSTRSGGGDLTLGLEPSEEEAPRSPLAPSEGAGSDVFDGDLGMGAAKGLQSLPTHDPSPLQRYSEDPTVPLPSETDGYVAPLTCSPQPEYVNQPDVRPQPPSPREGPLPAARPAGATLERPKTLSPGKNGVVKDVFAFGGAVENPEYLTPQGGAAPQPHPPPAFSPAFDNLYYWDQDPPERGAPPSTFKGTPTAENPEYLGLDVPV
How it was run: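 In-cell Western in NIH 3T3 cells carrying ErbB2 exon 20 YVMA insertion, with no ligand stimulation. One hour compound exposure at 37 °C before fixation and anti-pY1196 plus GAPDH staining with dual-wavelength fluorescence. IC50 derived after GAPDH normalization.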

EGFR = EGFR (Homo sapiens (Human), UniProt P00533); experiment: ErbB enzyme assay (CisBio HTRF KinEASE-TK), Assay 3; format: biochemical
Chain of EGFR (P00533 25-1210): as the sequence (P00533 25-1210) above
How it was run: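 HTRF dual-wavelength read after 1 h detection; POC normalised to DMSO (100) and pre-quenched (0) controls, IC50 where 4-parameter curve crosses 50 POC. Reaction: 250 nM TK-substrate biotin, 1 mM ATP, pH 7.4 HEPES buffer with MgCl2, 30 min, 22 °C.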

[2] = target: ErbB2 insYVMA (HER2-YVMA, SEQ ID NO: 2) (Homo sapiens, UniProt P04626, INS775YVMA/P1170A); experiment: biochemical; conditions: ErbB2 insYVMA enzyme assay

| Structure (SMILES) | IC50 (EGFR wild type (EGFR WT)) [µM] | IC50 (ErbB2 WT) [nM] | IC50 [1] [nM] | IC50 (EGFR) [µM] | IC50 ([2]; read-out: Assay 1 IC50) [nM] | IC50 ([2]; Assay 1 IC50 (nM)) [nM] |
| --- | --- | --- | --- | --- | --- | --- |
| Cc1cc(Nc2ncnc3cnc(NC4CCCC4)nc23)ccc1Oc1ccc2c(c1)ncn2C [Example 273] | ≥ 5 | 202 | 33.5 | ≥ 10 | 95 |  |
| Cc1cnc(-c2ncc3ncnc(Nc4ccc(Oc5ccc6c(c5)ncn6C)c(C)c4)c3n2)o1 [Example 231] | ≥ 5 | 274 | 39.2 | ≥ 10 | 115 |  |
| CC1(O)CN(c2ncc3ncnc(Nc4ccc(Oc5ccn6ncnc6c5)c(Cl)c4)c3n2)C1 [Example 324] | ≥ 5 | 119 | 124 | ≥ 10 | 64.4 |  |
| Cc1cc(Nc2ncnc3cnc(N4CCN[C@@H](C(F)(F)F)C4)nc23)ccc1Oc1ccn2ncnc2c1 [Example 421] | ≥ 5 | 43 | 69.9 | 4.94 | 29.3 |  |
| Cc1cc(Nc2ncnc3cnc(N4CC[C@@H](CC#N)C4)nc23)ccc1Oc1ccc2c(c1)ncn2C [Example 201, (S)-2-(1-(8-((3-methyl-4-((1-methyl-1H-benzo[d]imidazol-5-yl)oxy)phenyl)amino)pyrimido[5,4-d]pyrimidin-2-yl)pyrrolidin-3-yl)acetonitrile] | ≥ 5 | 88.8 | 9.9 | ≥ 10 | 27.7 |  |
| Cc1cc(Nc2ncnc3cnc(N4C[C@@H](O)C5(CC5)C4)nc23)c(Cl)cc1Oc1ccc2c(c1)ncn2C [Example 488] | ≥ 5 | 174 | 118 | ≥ 10 | 73.8 |  |
| CON1CCN(c2ncc3ncnc(Nc4cc(C)c(Oc5ccc6c(c5)ncn6C)cc4F)c3n2)CC1 [Example 486] | ≥ 5 | 138 | 133 | ≥ 10 | 29.6 |  |
| Cc1cc(Nc2ncnc3cnc(N4CC(O)(C(F)F)C4)nc23)ccc1Oc1ccc2c(c1)ncn2C [Example 160, 3-(difluoromethyl)-1-(8-((3-methyl-4-((1-methyl-1H-benzo[d]imidazol-5-yl)oxy)phenyl)amino)pyrimido[5,4-d]pyrimidin-2-yl)azetidin-3-ol hydrochloride] | ≥ 5 | 67.2 | 42.8 | 6.76 |  | 20.3 |
| Cc1cc(Nc2ncnc3cnc(N4CCC(C)(C#N)C4)nc23)ccc1Oc1ccc2c(c1)ncn2C (centres unmarked) [Example 475] | ≥ 5 | 88.6 | 82.6 | ≥ 10 | 22.4 |  |
| N#C[C@@H]1CCN(c2ncc3ncnc(Nc4ccc(Oc5ccn6ncnc6c5)c(Cl)c4)c3n2)C1 [Example 387] | ≥ 5 | 132 | 163 | ≥ 10 | 70 |  |
| Cc1cc(Nc2ncnc3cnc(N4CCN(CC(F)(F)F)CC4)nc23)ccc1Oc1ccc2c(c1)ncn2C [Example 85, N-(3-methyl-4-((1-methyl-1H-benzo[d]imidazol-5-yl)oxy)phenyl)-6-(4-(2,2,2-trifluoroethyl)piperazin-1-yl)pyrimido[5,4-d]pyrimidin-4-amine] | ≥ 5 | 726 | 130 | ≥ 10 | 204 |  |
| C[C@@H]1COCCN1c1ncc2ncnc(Nc3ccc(Oc4ccc5c(c4)ncn5C)c(Cl)c3)c2n1 [Example 144, (R)—N-(3-chloro-4-((1-methyl-1H-benzo[d]imidazol-5-yl)oxy)phenyl)-6-(3-methylmorpholino)pyrimido[5,4-d]pyrimidin-4-amine] | ≥ 5 | 78.2 | 38.1 | 6.91 | 59.5 |  |
| Clc1cc(Nc2ncnc3cnc(N4C[C@@H]5[C@H](C4)[C@H]4CC[C@@H]5O4)nc23)ccc1Oc1ccn2ncnc2c1 [Example 351] | ≥ 5 | 58.4 | 150 | ≥ 10 | 30.8 |  |
| Cc1cc(Nc2ncnc3cnc(N4CCC(F)(F)[C@@H](O)C4)nc23)ccc1Oc1ccc2c(c1)ncn2C [Example 460] | ≥ 5 | 89.7 | 88 | ≥ 10 | 59.1 |  |
| Cc1cc(Nc2ncnc3cnc(N4CCCO4)nc23)ccc1Oc1ccn2ncnc2c1 [Example 428] | ≥ 5 | 202 | 317 | ≥ 10 | 55.5 |  |
| Cn1cnc2cc(Oc3ccc(Nc4ncnc5cnc(N6C[C@@H]7C[C@H]6CO7)nc45)cc3Cl)ccc21 [Example 440] | ≥ 5 | 176 | 58.2 | ≥ 10 |  | 48.7 |

| Structure (SMILES) | IC50 (EGFR wild type (EGFR WT)) [µM] | IC50 (ErbB2 WT) [nM] | IC50 [1] [nM] | IC50 (EGFR) [µM] | IC50 ([2]; read-out: Assay 1 IC50) [nM] | IC50 ([2]; Assay 1 IC50 (nM)) [nM] |
| --- | --- | --- | --- | --- | --- | --- |
| Cc1cc(Nc2ncnc3cnc(N4CCOC[C@H]4C)nc23)ccc1Oc1ccc2c(c1)ncn2C [Example 257] | ≥ 5 | 8.2 | 9.4 | 3.27 | 19.8 |  |
| CN(C)c1ncc2ncnc(Nc3ccc(Oc4ccn5ncnc5c4)c(Cl)c3)c2n1 [Example 396] | ≥ 5 | 9.6 | 23.9 | ≥ 10 | 4.9 |  |
| Clc1cc(Nc2ncnc3cnc(N4C5CCC4COC5)nc23)ccc1Oc1ccn2ncnc2c1 [Example 322] | ≥ 5 | 62.1 | 102 | ≥ 10 | 21.6 |  |
| Cc1c(Oc2ccn3ncnc3c2)ccc(Nc2ncnc3cnc(N4CC[C@@H](O)C4)nc23)c1F [Example 312] | ≥ 5 | 54.2 | 1590 | ≥ 10 | 38.9 |  |
| Cc1cc(Nc2ncnc3cnc(N4CC5(COC5)C4)nc23)ccc1Oc1ccc2c(c1)ncn2C [Example 26, N-(3-methyl-4-((1-methyl-1H-benzo[d]imidazol-5-yl)oxy)phenyl)-6-(2-oxa-6-azaspiro[3.3]heptan-6-yl)pyrimido[5,4-d]pyrimidin-4-amine] | ≥ 5 | 507 | 62.2 | ≥ 10 | 85.6 |  |
| Cc1cc(Nc2ncnc3cnc(O[C@@H]4CNCC4(F)F)nc23)ccc1Oc1ccc2c(c1)ncn2C [Example 301] | ≥ 5 | 241 | 60.8 | ≥ 10 | 39.1 |  |
| Cc1cc(Nc2ncnc3cnc(N4CC[C@H]4C(F)F)nc23)ccc1Oc1ccn2ncnc2c1 [Example 390] | ≥ 5 | 44.6 | 108 | 3.98 | 24.8 |  |
| Cc1cc(Nc2ncnc3cnc(N4CC[C@](C)(O)C4)nc23)ccc1Oc1ccn2ncnc2c1 [Example 365] | ≥ 5 | 81.8 | 132 | 7.57 | 38.4 |  |
| Cc1cc(Nc2ncnc3cnc(NCc4cnn(C)c4C)nc23)ccc1Oc1ccc2c(c1)ncn2C [Example 103, N2-((1,5-dimethyl-1H-pyrazol-4-yl)methyl)-N8-(3-methyl-4-((1-methyl-1H-benzo[d]imidazol-5-yl)oxy)phenyl)pyrimido[5,4-d]pyrimidine-2,8-diamine] | ≥ 5 | 56.6 | 61.5 | ≥ 10 | 20.3 |  |
| Cc1cc(Nc2ncnc3cnc(N4CCN(CC(F)F)CC4)nc23)ccc1Oc1ccc2c(c1)ncn2C [Example 477] | ≥ 5 | 47.1 | 53.3 | ≥ 10 | 59.6 |  |
| Cc1cc(Nc2ncnc3cnc(N(C)C[C@@H]4COCCO4)nc23)ccc1Oc1ccc2c(c1)ncn2C [Example 353] | ≥ 5 | 47.5 | 18.1 | ≥ 10 | 48.2 |  |
| Cc1cc(Nc2ncnc3cnc(N4CCCC4=O)nc23)ccc1Oc1ccn2ncnc2c1 [Example 137, 1-(8-((4-([1,2,4]triazolo[1,5-a]pyridin-7-yloxy)-3-methylphenyl)amino)pyrimido[5,4-d]pyrimidin-2-yl)pyrrolidin-2-one] | ≥ 5 | 166 | 1080 | ≥ 10 | 97.7 |  |
| COC1(C)CN(c2ncc3ncnc(Nc4ccc(Oc5ccc6c(c5)ncn6C)c(C)c4)c3n2)C1 [Example 298] | ≥ 5 | 234 | 38.6 | ≥ 10 | 40.2 |  |
| O[C@@H]1[C@@H]2CC[C@H]1CN(c1ncc3ncnc(Nc4ccc(Oc5ccn6ncnc6c5)c(Cl)c4)c3n1)C2 [Example 341] | ≥ 5 | 20.7 | 43.1 | 1.74 | 12.7 |  |
| Clc1cc(Nc2ncnc3cnc(N4CCO[C@H]5C[C@H]54)nc23)ccc1Oc1ccn2ncnc2c1 [Example 384] | ≥ 5 | 43 | 91.5 | 4.31 | 13.6 |  |
